Laboratory results published in patent US20160355483A1, “COMPOUND BINDING TO PPARG BUT NOT ACTING AS PROMOTER AND PHARMACEUTICAL COMPOSITION FOR TREATING PPARG-RELATED DISEASES CONTAINING SAME AS ACTIVE INGREDIENT” (Hyundai Pharm Co., Ltd., priority 2014, published 2016).
Entries after “also recorded” stand apart in the source; their conditions may differ.

Tests used:
[1] = target: T1, CYP 2D6 (Homo sapiens, UniProt P10635); assay: CYP (cytochrome P450)-suppressing effect, Invitrogen Vivid kit; assay type: in vitro ADME
T1 construct: purchased Invitrogen P2862
Experimental: (§1) To evaluate the CYP (cytochrome P450)-suppressing activity of the compounds prepared in the examples of the invention, the following experiment was performed.
(§2) The analysis of CYP1A2, 2C19, and 3A4 suppressing activity was performed by using a BD GENTEST (459100, 459400, and 459500) kit, and the analysis of CYP 2C9- and 2D6-suppressing activity was performed by using an Invitrogen (P2861 and P2862) kit.
(§3) When the Invitrogen kit was used, the compounds of the present invention were diluted in Vivid CYP450 reaction buffer (1×) at the final concentration of 2.5×. The P450 BACULOSOMES sample and Regeneration system (100×) were diluted in Vivid CYP450 reaction buffer (1×) at different proper concentrations. 80 μL of the compound of the invention (2.5×) and […] of the diluted P450 BACULOSOMES sample mixture were mixed in a U-bottom 96-well plate, followed by pre-incubation for 10 minutes. Vivid CYP450 Substrate and NADP+ (100×) were diluted in Vivid CYP450 reaction buffer (1×) at a desired concentration, respectively, according to their corresponding types of CYP450 and substrates. 20 μL of Substrate-NADP+ mix was loaded in the plate when the pre-incubation had been completed, followed by reaction for 1 hour. Upon completion of the reaction, the reaction mixture was transferred in a white plate and fluorescent wavelength was measured with a microplate reader (2C9 excitation 415 nm, emission 460 nm, 2D6 excitation 400 nm, emission 502 nm).
(§4) The test results were calculated by the following formula:
(§5) (1−(fluorescence value of the test material/fluorescence value of the vehicle))×100%.

[2] = target: T2, CYP 2C9 (Homo sapiens, UniProt P11712); assay: as above; assay type: in vitro ADME
T2 construct: purchased Invitrogen P2861
Experimental: as §1, §2, §3, §4, §5

[3] = target: T3, HERG (Human Ether-a-go-go-Related Gene) channel (Homo sapiens, UniProt Q12809); assay: Evaluation of cardiotoxicity, patch-clamp on HEK293 cells expressing HERG channel; assay type: cell-based; settings: HERG peak tail current
T3 construct: expressed in transfected cells; host or cells: HEK293
Experimental: HEK293 cells expressing HERG (Human Ether-a-go-go-Related Gene) channel safely were cultured in MEM (Minimum Essential Medium) supplemented with 10% fetal bovine serum (FBS), 1 mM sodium pyruvate, 0.1 mM non-essential amino acid solution, 100 units/ml penicillin-streptomycin, 100 μg/ml streptomycin sulfate and 100 μg/ml zeocin under the condition of air:CO2=95:5. When the cells were grown to 60-80% confluency, the cells were loaded in the medium supplemented with 0.25% trypsin and 0.02% EDTA (ethylenediaminetertraacetic acid) for 3 minutes. The cells were then washed with a fresh medium and then dispensed on a new plastic culture dish. For the electrophysiological record, the cells were seeded on a glass cover slip of 5 mm in diameter, followed by incubation in a 24-well plate for 5-24 hours. Then, the cells were transferred into the recording chamber.
The current value of all the cells was measured by the conventional patch-clamp technique or Port-a-Patch (Nanion, Germany) semiautomatic technique. The pH of the external bath solution containing 136 mM NaCl, 5.4 mM KCl, 1.8 mM CaCl2, 1 mM MgCl2, 10 mM glucose, and 10 mM HEPES (4-(2-hydroxyethyl)-1-piperazineethanesulfonic acid) was adjusted to 7.4 using NaOH. The pH of the intracellular pipette solution containing 130 mM KCl, 1 mM MgCl2, 10 mM EGTA (ethylene glycol tetraacetic acid), 5 mM Mg-ATP, and mM HEPES was adjusted to 7.2 using KOH.
In the conventional patch-clamp technique, the patch pipette was pulled by a PP-83 pipette puller (Narishige, Tokyo, Japan), so that it had 2-4 MΩ of resistance in the external bath solution. The ionic current was recorded by using EPC7 pulse amplifier (HEKA electronic, Germany). The voltage-clamp amplification was regulated using the pClamp computer program (Axon Instruments, USA), and the obtained data were analyzed. During the recording, the solution above was continually spread on HEK293 cells in the chamber. For the recording, the Port-a-Patch (Nanion, Germany) semiautomatic patch system was used, and the amplifier used herein was EPC10.
The membrane potential was maintained at −80 mV, which was changed to +20 mV for 4 seconds, then changed to −50 mV for 6 seconds and then maintained again at −80 mV. The changes were made every 25 seconds.
To obtain the concentration-reaction curve in the presence of the drug, dose-dependent inhibition was entered into the Hill formula represented by mathematical formula 1 below.
In mathematical formula 1, Idrug indicates the peak tail current in the presence of a drug, Icontrol indicates the maximum peak tail current in the absence of a drug, D indicates the concentration of a drug, h indicates Hill constant, and IC50 indicates the concentration when the half-maximum peak tail current was suppressed.

[4] = test system: CYP isozymes 1A2, 2C9, 2C19, and 2D6; assay: CYP suppression compared with comparative examples (Table 3); assay type: in vitro ADME; settings: result in words
Experimental: as §1, §2, §3
(§6) When the BD GENTEST kit was used, the compounds of the present invention were diluted in acetonitrile at the final concentration of 50×. The NADPH-Cofactor mix was prepared by diluting the Cofactor, G6PDH, and control protein provided by the kit in DW according to the instructed concentration. 4 μL of the compound of the example (50×) was mixed with 96 μL of NADPH-Cofactor mix in a 96-well plate, followed by pre-incubation in a 37° C. incubator for 10 minutes.
(§7) The enzyme/substrate mixture was diluted in the buffer (0.5 M potassium phosphate, pH 7.4) provided by the kit according to the instructed concentration. Each CYP450 enzyme substrate was diluted in DW at a desired concentration respectively according to the corresponding types of CYP450. 100 μL of the enzyme/substrate mixture was loaded in the plate when the pre-incubation had been completed, followed by reaction in a 37° C. incubator for 15 minutes (1A2) and 30 minutes (3A4 and 2C19). Upon completion of the reaction, the mixture was transferred to a white plate, and the fluorescent wavelength was measured with a microplate reader (1A2, 2C19 excitation 410 nm, emission 460 nm; 3A4, excitation 409 nm, emission 530 nm).
as §4, §5

[5] = target: T4, CYP 2C19 (Homo sapiens, UniProt P33261); assay: CYP (cytochrome P450)-suppressing effect, BD GENTEST kit; assay type: in vitro ADME
T4 construct: purchased BD GENTEST 459400
Experimental: as §1, §2, §6, §7, §4, §5

[6] = target: T5, CYP 3A4 (Homo sapiens, UniProt P08684); assay: as above; assay type: in vitro ADME
T5 construct: purchased BD GENTEST 459500
Experimental: as §1, §2, §6, §7, §4, §5

[7] = target: T6, CYP1A2 (Homo sapiens, UniProt P05177); assay: as above; assay type: in vitro ADME
T6 construct: purchased BD GENTEST 459100
T6 sequence (P05177 1-516): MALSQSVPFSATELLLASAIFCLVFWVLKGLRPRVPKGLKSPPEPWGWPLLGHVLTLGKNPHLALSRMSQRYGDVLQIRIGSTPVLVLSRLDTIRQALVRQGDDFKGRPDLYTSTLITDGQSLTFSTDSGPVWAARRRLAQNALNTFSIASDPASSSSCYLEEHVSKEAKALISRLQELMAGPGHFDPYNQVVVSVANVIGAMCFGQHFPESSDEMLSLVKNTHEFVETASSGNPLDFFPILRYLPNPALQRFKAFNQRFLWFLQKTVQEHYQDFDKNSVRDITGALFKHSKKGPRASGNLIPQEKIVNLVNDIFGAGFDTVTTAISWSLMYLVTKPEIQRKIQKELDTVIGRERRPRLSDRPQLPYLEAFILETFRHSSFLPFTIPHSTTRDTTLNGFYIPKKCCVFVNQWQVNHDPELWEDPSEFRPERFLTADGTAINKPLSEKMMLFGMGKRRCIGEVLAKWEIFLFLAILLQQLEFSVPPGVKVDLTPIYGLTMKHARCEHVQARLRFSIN
Experimental: as §1, §2, §6, §7, §4, §5

[8] = target: T7, PPARG (peroxisome proliferator activated receptor-gamma), GST-PPARG-LBD (Homo sapiens, UniProt P37231); assay: LanthaScreen TR-FRET PPARG Competitive Binding Assay; set-up: key: “+” indicates the degree of the binding activity, and as the number of “+” increases, the binding activity is stronger; ++: “+” indicates the degree of the binding activity, and as the number of “+” increases, the binding activity is stronger; +++: “+” indicates the degree of the binding activity, and as the number of “+” increases, the binding activity is stronger; ++++: “+” indicates the degree of the binding activity, and as the number of “+” increases, the binding activity is stronger; settings: degree of binding activity
T7 construct: 15 μL of 5 nM GST-PPARG-LBD and 5 nM Tb-GST-antibody were added; purchased Invitrogen PV4894
T7 sequence (P37231 238-503 limits assumed): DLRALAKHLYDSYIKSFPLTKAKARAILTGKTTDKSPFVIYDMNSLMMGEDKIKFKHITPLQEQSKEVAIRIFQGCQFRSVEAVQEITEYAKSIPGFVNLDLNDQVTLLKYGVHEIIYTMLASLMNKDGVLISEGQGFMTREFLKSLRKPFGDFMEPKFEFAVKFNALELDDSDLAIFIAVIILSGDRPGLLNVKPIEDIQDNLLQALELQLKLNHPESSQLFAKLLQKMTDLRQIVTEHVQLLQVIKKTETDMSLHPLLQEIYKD
Method in brief: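 Ratio of 518 nm to 488 nm time-resolved emission after a 1 h room-temperature incubation, in competition format with GST-PPARG ligand-binding domain. Values are expressed as 100% minus compound-to-vehicle ratio and related to rosiglitazone binding.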

[9] = test system: bone cells; settings: cell culture test; cited from earlier work

T3 sequence (Q12809 whole entry): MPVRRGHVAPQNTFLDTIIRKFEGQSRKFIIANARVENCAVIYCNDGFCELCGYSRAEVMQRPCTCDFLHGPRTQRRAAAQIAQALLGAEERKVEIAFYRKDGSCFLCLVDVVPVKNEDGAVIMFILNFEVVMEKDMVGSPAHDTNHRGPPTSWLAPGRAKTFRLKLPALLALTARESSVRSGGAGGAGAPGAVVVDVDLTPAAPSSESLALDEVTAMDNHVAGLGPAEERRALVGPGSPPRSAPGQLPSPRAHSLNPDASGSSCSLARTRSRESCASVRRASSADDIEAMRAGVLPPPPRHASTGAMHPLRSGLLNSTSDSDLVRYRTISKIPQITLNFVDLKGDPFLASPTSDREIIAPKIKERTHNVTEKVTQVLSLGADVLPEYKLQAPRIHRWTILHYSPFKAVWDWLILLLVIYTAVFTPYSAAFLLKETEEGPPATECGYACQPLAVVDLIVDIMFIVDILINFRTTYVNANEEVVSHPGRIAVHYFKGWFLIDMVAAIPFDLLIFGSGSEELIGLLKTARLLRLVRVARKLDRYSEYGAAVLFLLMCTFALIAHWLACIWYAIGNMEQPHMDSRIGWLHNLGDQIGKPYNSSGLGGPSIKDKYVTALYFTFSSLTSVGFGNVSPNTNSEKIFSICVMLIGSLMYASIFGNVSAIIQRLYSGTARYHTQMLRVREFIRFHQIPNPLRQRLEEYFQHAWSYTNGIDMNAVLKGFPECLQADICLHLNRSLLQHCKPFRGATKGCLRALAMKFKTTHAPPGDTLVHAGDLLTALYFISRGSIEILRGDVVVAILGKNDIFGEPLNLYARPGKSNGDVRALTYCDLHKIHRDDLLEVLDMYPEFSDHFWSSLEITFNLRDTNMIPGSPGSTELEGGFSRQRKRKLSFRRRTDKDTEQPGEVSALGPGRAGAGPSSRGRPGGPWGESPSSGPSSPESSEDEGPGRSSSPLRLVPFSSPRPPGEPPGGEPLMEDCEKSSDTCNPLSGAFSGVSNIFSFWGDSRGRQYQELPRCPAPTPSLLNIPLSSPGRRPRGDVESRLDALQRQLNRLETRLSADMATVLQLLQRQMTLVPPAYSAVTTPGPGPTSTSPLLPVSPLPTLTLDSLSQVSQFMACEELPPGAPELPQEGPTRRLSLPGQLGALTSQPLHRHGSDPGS
T5 sequence (P08684 whole entry): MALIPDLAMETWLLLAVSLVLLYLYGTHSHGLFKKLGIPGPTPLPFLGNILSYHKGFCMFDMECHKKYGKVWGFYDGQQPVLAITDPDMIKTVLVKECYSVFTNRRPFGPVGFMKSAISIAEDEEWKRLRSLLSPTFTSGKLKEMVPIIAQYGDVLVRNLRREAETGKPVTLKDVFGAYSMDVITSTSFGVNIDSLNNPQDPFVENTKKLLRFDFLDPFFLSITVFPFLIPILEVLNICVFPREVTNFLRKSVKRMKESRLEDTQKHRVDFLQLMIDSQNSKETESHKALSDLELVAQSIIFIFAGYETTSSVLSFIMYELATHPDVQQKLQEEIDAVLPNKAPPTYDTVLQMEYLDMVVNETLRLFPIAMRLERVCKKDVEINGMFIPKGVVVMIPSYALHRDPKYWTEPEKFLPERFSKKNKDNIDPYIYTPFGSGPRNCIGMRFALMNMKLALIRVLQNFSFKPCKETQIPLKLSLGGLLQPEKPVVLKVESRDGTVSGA
T1 sequence (P10635 whole entry): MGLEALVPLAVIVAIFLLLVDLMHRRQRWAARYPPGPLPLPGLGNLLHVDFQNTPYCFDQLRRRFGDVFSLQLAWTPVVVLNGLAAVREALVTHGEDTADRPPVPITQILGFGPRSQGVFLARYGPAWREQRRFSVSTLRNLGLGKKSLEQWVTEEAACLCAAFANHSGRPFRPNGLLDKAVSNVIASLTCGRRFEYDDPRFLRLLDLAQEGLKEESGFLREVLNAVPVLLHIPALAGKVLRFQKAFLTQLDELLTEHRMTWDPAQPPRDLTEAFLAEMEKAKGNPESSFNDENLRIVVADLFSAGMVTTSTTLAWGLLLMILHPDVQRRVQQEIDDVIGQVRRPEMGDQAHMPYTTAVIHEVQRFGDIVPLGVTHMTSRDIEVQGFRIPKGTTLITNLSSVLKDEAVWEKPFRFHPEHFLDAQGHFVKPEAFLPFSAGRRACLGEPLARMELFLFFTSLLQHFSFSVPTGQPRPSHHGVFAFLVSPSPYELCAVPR
T4 sequence (P33261 whole entry): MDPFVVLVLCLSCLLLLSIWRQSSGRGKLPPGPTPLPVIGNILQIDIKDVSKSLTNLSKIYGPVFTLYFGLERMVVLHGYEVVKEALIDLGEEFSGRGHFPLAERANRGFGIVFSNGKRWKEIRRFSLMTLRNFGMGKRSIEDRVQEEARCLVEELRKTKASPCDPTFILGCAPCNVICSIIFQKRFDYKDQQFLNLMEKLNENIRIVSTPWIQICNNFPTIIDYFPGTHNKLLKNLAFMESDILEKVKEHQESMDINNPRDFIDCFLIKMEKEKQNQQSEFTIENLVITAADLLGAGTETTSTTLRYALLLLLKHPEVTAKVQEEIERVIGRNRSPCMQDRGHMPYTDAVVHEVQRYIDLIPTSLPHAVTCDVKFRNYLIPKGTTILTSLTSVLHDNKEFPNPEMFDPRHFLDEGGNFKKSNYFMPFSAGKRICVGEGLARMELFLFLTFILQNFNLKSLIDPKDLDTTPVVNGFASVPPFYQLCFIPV
T2 sequence (P11712 whole entry): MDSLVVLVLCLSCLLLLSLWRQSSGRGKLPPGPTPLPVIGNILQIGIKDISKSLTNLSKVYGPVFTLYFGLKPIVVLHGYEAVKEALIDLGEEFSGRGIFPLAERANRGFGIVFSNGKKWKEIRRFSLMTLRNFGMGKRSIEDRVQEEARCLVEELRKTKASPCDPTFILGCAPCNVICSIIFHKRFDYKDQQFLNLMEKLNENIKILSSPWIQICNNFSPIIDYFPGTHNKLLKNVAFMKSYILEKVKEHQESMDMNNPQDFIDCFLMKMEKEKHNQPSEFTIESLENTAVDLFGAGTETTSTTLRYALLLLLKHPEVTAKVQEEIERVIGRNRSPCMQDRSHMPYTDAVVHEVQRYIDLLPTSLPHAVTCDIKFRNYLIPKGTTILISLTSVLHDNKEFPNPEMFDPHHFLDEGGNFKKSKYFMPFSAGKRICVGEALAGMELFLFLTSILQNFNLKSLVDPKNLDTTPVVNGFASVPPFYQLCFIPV

SMILES	CYP(10 μL, %) 2D6 [1] [%]	CYP(10 μL, %) 2C9 [2] [%]	IC50 [3] [µM]	suppression of CYP isozymes 1A2, 2C9, 2C19, and 2D6 compared with SR1664 and SR1824 [4]	CYP(10 μL, %) 2C19 [5] [%]	CYP(10 μL, %) 3A4 [6] [%]	CYP(10 μL, %) 1A2 [7] [%]	Binding assay (1 μLM) [8]	fat generation in bone cells [9]
Cc1ccc([C@H](C)NC(=O)c2ccc3c(c2)CCCN3Cc2ccc(-c3ccccc3C(=O)[O-])cc2)cc1F.[Na+] [Example 56, sodium (S)-4′-((6-((1-(3-fluoro-4-methylphenyl)ethyl)carbamoyl)-3,4-dihydroquinoline-1(2H)-yl)methyl)-[1,1′-biphenyl]-2-carboxylate]	94.15	55.36	72.6	less than the compounds of the comparative examples; also recorded: less strongly than the compounds of the Comparative Examples	85.71	54.62	100.73	++++	–
C[C@H](NC(=O)c1ccc2c(c1)CCCN2Cc1cc(-c2ccccc2C(N)=O)ccc1F)c1ccc([N+](=O)[O-])cc1 [Example 139, (S)-1-((2′-carbamoyl-4-fluoro-[1,1′-biphenyl]-3-yl)methyl)-N-(1-(4-nitrophenyl)ethyl)-1,2,3,4-tetrahydroquinoline-6-carboxamide]	80.63	63.24	–	less than the compounds of the comparative examples; also recorded: less strongly than the compounds of the Comparative Examples	53.50	60.95	94.00	+++	–
C[C@H](NC(=O)c1ccc2c(c1)CCCN2Cc1ccccc1-c1ccc(C(=O)O)cc1)c1ccc([N+](=O)[O-])cc1 [Example 155, (S)-2′-((6-((1-(4-nitrophenyl)ethyl)carbamoyl)-3,4-dihydroquinoline-1(2H)-yl)methyl)-[1,1′-biphenyl]-4-carboxylic acid]	–	–	73.6	–	–	–	–	+	–
C[C@H](NC(=O)c1ccc2c(c1)CCCN2Cc1ccccc1-c1ccc(C(=O)O)cc1)c1ccc2ccccc2c1 [Example 156, (S)-2′-((6-((1-(naphthalene-2-yl)ethyl)carbamoyl)-3,4-dihydroquinoline-1(2H)-yl)methyl)-[1,1′-biphenyl]-4-carboxylic acid]	–	–	55.2	–	–	–	–	+	–
C[C@H](NC(=O)c1ccc2c(c1)CCCN2Cc1ccccc1-c1ccc(C(=O)O)cc1)c1ccc(C#N)cc1 [Example 157, (S)-2′-((6-((1-(4-cyanophenyl)ethyl)carbamoyl)-3,4-dihydroquinoline-1(2H)-yl)methyl)-[1,1′-biphenyl]-4-carboxylic acid]	–	–	42.7	–	–	–	–	++	–
Cc1c(C)n(Cc2ccc(-c3ccccc3C(=O)O)cc2)c2ccc(C(=O)N[C@@H](C)c3ccc([N+](=O)[O-])cc3)cc12 [SR1664]	–	–	–	–	–	–	–	–	does not induce problems such as fat generation in bone cells
